Experiments:
[1] = molecular target: Sigma non-opioid intracellular receptor 1 (Homo sapiens, UniProt Q99720); experiment: DRUGMATRIX: Sigma1 radioligand binding (ligand: [3H] Haloperidol); assay type: cell membranes, Jurkat, Membrane; settings: Not Active = under 50% inhibition at 10 µM; for Ki: read-out: Ki
[2] = molecular target: T1, Cysteinyl leukotriene receptor 1 (Homo sapiens, UniProt Q9Y271); assay type: cell membranes, CHO-K1, Membrane; settings: cho-k1; also: in other assays of this panel Not Active means under 50% inhibition at 10 µM
T1 sequence (Q9Y271 whole entry): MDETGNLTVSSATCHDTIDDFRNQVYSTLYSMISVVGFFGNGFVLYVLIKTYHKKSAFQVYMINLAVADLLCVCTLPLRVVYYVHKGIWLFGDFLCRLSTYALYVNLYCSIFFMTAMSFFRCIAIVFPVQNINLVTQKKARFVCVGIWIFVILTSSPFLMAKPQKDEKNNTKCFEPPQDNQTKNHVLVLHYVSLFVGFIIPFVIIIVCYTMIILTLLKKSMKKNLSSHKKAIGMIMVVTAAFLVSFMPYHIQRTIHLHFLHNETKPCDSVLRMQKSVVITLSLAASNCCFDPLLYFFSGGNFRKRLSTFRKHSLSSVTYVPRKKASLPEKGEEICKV

[3] = molecular target: Melanocortin receptor 3 (Homo sapiens, UniProt P41968); assay type: cell membranes, HEK293, Membrane; also: in other assays of this panel Not Active means under 50% inhibition at 10 µM
Sequence of Melanocortin receptor 3 (P41968 whole entry): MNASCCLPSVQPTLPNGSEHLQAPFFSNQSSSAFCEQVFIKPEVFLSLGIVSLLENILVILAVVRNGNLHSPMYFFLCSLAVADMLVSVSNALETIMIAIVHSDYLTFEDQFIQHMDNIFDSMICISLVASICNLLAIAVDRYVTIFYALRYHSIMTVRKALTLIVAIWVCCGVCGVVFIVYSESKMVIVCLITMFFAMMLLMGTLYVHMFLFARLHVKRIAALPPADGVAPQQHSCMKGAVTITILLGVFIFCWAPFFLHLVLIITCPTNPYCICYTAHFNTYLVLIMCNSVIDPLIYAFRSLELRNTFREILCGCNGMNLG

[4] = molecular target: T2, Angiotensin-converting enzyme (Oryctolagus cuniculus, UniProt P12822); experiment: biochemical; assay type: tissue-based, Lung;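 also: enzymatic inhibition of angiotensin-converting enzyme measured with FAPGG as the substrate; in other assays of this panel Not Active means under 50% inhibition at 10 µM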
T2 sequence (P12822 whole entry): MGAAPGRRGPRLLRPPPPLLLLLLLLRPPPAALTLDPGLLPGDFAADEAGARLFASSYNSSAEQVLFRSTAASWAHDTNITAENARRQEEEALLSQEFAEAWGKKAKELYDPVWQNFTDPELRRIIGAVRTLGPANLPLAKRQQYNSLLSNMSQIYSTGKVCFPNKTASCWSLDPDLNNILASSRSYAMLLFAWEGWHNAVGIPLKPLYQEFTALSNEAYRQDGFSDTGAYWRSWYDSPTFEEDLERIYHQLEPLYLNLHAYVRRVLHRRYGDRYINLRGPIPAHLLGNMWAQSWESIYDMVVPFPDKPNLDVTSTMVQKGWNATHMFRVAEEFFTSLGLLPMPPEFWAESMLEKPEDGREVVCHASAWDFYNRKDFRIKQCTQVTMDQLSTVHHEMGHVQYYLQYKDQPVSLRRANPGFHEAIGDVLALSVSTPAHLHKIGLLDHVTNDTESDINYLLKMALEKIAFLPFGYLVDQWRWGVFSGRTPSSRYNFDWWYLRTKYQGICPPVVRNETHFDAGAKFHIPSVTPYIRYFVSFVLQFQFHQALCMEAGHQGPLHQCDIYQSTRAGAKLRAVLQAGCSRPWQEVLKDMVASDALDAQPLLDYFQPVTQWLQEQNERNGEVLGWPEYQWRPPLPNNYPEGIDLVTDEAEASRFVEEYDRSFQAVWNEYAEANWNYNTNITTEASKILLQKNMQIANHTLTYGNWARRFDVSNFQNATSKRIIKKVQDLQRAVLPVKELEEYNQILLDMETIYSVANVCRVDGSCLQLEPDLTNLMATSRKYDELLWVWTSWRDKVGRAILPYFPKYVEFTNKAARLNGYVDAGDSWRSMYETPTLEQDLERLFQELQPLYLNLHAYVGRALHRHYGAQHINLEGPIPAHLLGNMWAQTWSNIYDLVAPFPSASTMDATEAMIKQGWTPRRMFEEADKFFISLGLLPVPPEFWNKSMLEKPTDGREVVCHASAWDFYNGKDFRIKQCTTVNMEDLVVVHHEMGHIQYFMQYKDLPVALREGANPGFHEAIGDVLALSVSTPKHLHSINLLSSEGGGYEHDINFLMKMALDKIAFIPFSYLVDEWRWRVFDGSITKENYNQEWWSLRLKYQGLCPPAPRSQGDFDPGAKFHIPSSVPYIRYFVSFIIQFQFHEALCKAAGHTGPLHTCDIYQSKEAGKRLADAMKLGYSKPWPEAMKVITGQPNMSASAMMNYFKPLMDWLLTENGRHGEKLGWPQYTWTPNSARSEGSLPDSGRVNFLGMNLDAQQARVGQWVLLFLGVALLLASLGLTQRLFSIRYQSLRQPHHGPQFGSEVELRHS

[5] = molecular target: T3, Cathepsin G (Homo sapiens, UniProt P08311); experiment: biochemical; assay type: tissue-based, Neutrophil; settings: neutrophil;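 also: inhibition of Cathepsin G enzyme activity, tested on an AMC-conjugated peptide substrate; in other assays of this panel Not Active means under 50% inhibition at 10 µM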
T3 sequence (P08311 whole entry): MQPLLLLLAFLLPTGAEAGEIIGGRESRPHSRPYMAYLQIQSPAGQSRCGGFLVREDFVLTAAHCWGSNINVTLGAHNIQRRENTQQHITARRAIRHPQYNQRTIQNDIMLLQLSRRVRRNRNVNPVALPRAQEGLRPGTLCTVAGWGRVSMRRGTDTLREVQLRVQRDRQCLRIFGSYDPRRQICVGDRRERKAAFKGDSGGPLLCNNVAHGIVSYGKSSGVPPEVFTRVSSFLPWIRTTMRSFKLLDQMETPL

[6] = molecular target: 5-hydroxytryptamine receptor 1B (Rattus norvegicus, UniProt P28564); assay type: cell membranes, Wistar, Cerebral cortex, Membrane; settings: for Ki: read-out: Ki
Sequence of 5-hydroxytryptamine receptor 1B (P28564 whole entry): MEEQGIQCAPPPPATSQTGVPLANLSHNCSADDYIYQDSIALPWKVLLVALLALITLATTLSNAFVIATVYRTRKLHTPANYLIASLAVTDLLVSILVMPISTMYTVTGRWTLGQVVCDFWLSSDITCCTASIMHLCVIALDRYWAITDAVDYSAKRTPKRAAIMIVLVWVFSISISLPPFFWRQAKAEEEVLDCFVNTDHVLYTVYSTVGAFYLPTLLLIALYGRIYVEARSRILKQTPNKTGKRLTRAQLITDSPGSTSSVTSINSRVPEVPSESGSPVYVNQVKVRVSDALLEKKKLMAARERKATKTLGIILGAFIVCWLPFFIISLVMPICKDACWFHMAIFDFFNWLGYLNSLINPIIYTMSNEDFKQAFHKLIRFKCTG

Sequence of Sigma non-opioid intracellular receptor 1 (Q99720 whole entry): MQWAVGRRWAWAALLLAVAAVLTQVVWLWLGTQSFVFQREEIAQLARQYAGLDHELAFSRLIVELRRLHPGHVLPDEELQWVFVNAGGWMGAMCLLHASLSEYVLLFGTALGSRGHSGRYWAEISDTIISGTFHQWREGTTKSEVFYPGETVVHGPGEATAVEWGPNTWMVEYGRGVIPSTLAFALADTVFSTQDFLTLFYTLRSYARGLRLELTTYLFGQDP

| Structure (SMILES) | IC50 ([1]; jurkat) | IC50 [2] | IC50 ([3]; hek293) | IC50 [4] | IC50 [5] | IC50 [6] | IC50 ([6]; read-out: IC50) | Ki [6] | IC50 ([3]; read-out: IC50) | Ki ([3]; read-out: Ki) | IC50 ([1]; read-out: IC50) | Ki [1] |
| --- | --- | --- | --- | --- | --- | --- | --- | --- | --- | --- | --- | --- |
| C#C[C@]1(O)CC[C@H]2[C@@H]3[C@H](C)CC4=C(CCC(=O)C4)[C@H]3CC[C@@]21C [TIBOLONE] | Not Active | Not Active | Not Active | Not Active | Not Active | Not Active |  |  |  |  |  |  |
| CN1C(=O)OC(C)(C)C1=O [TRIMETHADIONE] | Not Active | Not Active | Not Active | Not Active | Not Active | Not Active |  |  |  |  |  |  |
| OC[C@@H](O)[C@@H](O)[C@H](O)[C@H](O)CO [MANNITOL] | Not Active | Not Active | Not Active | Not Active | Not Active | Not Active |  |  |  |  |  |  |
| CCN(CC)C(=S)SSC(=S)N(CC)CC | Not Active | Not Active | Not Active | Not Active | Not Active |  | 4720 nM | 2150 nM |  |  |  |  |
| O=C(O)c1cc(/N=N/c2ccc(S(=O)(=O)Nc3ccccn3)cc2)ccc1O [SULFASALAZINE] | Not Active | Not Active | Not Active | Not Active | Not Active | Not Active |  |  |  |  |  |  |
| O=C(c1ccccc1)c1ccc2n1CCC2C(=O)O (stereo not drawn) [KETOROLAC] | Not Active | Not Active | Not Active | Not Active | Not Active | Not Active |  |  |  |  |  |  |
| CC[C@H](C)[C@@H](CO[C@@H](Cc1ccccc1)C(=O)N[C@@H](CCS(C)(=O)=O)C(=O)OC(C)C)NC[C@@H](N)CS | Not Active | Not Active |  | Not Active | Not Active | Not Active |  |  | 3390 nM | 2960 nM |  |  |
| CC(C)(C)NC[C@H](O)COc1cccc2c1CCCC2=O [LEVOBUNOLOL] |  | Not Active | Not Active | Not Active | Not Active | Not Active |  |  |  |  | 773 nM | 325 nM |
| C[N+]1(C)[C@@H]2C[C@@H](OC(=O)[C@H](CO)c3ccccc3)C[C@H]1[C@@H]1O[C@@H]12.[Br-] [METHSCOPOLAMINE BROMIDE] | Not Active | Not Active | Not Active | Not Active | Not Active | Not Active |  |  |  |  |  |  |
| CO[C@@H]1[C@@H](OC)[C@H](C)[C@@](O)(CC(=O)O)O[C@H]1[C@H](C)[C@H]1O[C@@]2(CC[C@@](C)([C@H]3CC[C@@](C)([C@@H]4O[C@@H]([C@H]5O[C@](C)(O)[C@H](C)C[C@@H]5C)C[C@@H]4O[C@@H]4C[C@H](OC)[C@@H](OC)[C@H](C)O4)O3)O2)C[C@H](O)[C@H]1C.N [MADURAMICIN] | Not Active | Not Active | Not Active | Not Active | Not Active | Not Active |  |  |  |  |  |  |
| Cc1nnc(NS(=O)(=O)c2ccc(N)cc2)s1 [SULFAMETHIZOLE] | Not Active | Not Active | Not Active | Not Active | Not Active | Not Active |  |  |  |  |  |  |
| Cc1cnc(NC(=O)C2=C(O)c3ccccc3S(=O)(=O)N2C)s1 [MELOXICAM] | Not Active | Not Active | Not Active | Not Active | Not Active | Not Active |  |  |  |  |  |  |
| CC1=C(/C=C/C(C)=C/C=C/C(C)=C/C(=O)O)C(C)(C)CCC1 [TRETINOIN] | Not Active | Not Active | Not Active | Not Active | Not Active | Not Active |  |  |  |  |  |  |
| Cc1ccc(S(=O)(=O)NC(=O)NN2CCCCCC2)cc1 [TOLAZAMIDE] | Not Active | Not Active | Not Active | Not Active | Not Active | Not Active |  |  |  |  |  |  |
| Cc1cccc(C)c1NC(=O)C(C)N (stereo not drawn) [TOCAINIDE] | Not Active | Not Active | Not Active | Not Active | Not Active | Not Active |  |  |  |  |  |  |
| Cc1cc2c(s1)Nc1ccccc1N=C2N1CCN(C)CC1 [OLANZAPINE] | Not Active | Not Active | Not Active | Not Active | Not Active |  | 707 nM | 433 nM |  |  |  |  |
| COC(=O)Nc1nc2ccc(C(=O)c3ccccc3)cc2[nH]1 [MEBENDAZOLE] | Not Active | Not Active | Not Active | Not Active | Not Active | Not Active |  |  |  |  |  |  |
| O=C1CC[C@@]2(O)[C@H]3Cc4ccc(O)c5c4[C@@]2(CCN3CC2CC2)[C@H]1O5 [NALTREXONE] | Not Active | Not Active | Not Active | Not Active | Not Active | Not Active |  |  |  |  |  |  |
| CCN(CC)CCNC(=O)c1cc(Cl)c(N)cc1OC [METOCLOPRAMIDE] | Not Active | Not Active | Not Active | Not Active | Not Active | Not Active |  |  |  |  |  |  |
| CCOc1cc(N)c(Cl)cc1C(=O)NCC1CN(Cc2ccc(F)cc2)CCO1 (stereo not drawn) [MOSAPRIDE] |  | Not Active | Not Active | Not Active | Not Active | Not Active |  |  |  |  | 306 nM | 128 nM |
| Cc1ccc(Cl)c(Nc2ccccc2C(=O)O)c1Cl [MECLOFENAMIC ACID] | Not Active | Not Active | Not Active | Not Active | Not Active | Not Active |  |  |  |  |  |  |
| CN1C[C@H](CNC(=O)OCc2ccccc2)C[C@@H]2c3cccc4c3c(cn4C)C[C@H]21 [METERGOLINE] | Not Active | Not Active | Not Active | Not Active | Not Active |  | 19 nM | 11 nM |  |  |  |  |
| O=[As][O-].[Na+] [SODIUM ARSENITE] | Not Active | Not Active | Not Active | Not Active | Not Active | Not Active |  |  |  |  |  |  |
| CC(=O)O[C@]1(C(C)=O)CC[C@H]2[C@@H]3C[C@H](C)C4=CC(=O)CC[C@]4(C)[C@H]3CC[C@@]21C [MEDROXYPROGESTERONE ACETATE] | Not Active | Not Active | Not Active | Not Active | Not Active | Not Active |  |  |  |  |  |  |
| CCN1CCCC1CNC(=O)c1cc(S(N)(=O)=O)ccc1OC (stereo not drawn) [SULPIRIDE] | Not Active | Not Active | Not Active | Not Active | Not Active | Not Active |  |  |  |  |  |  |
| CC(O)C(=O)O (stereo not drawn) [LACTIC ACID] | Not Active | Not Active | Not Active | Not Active | Not Active | Not Active |  |  |  |  |  |  |
| CC(Cl)(Cl)Cl [TRICHLOROETHANE] | Not Active | Not Active | Not Active | Not Active | Not Active | Not Active |  |  |  |  |  |  |

Source: ChEMBL document CHEMBL1909046, “DrugMatrix in vitro pharmacology data”
